Laboratory results taken from patent US20040110825A1, “Method for treating sepsis” (priority 2003, published 2004).

Tests used:
[1] = tested on: patients with severe sepsis; assay: Phase 2 multicenter, double-blind, placebo-controlled trial: 28-day all-cause mortality; type: in vivo, human; conditions: for effect on mortality compared to placebo: administration started within 24 hours after first organ failure, continued up to 7 days
Procedure: FIG. 3 represents a plot of 28-day mortality by treatment (Y-axis) against time after first organ failure at which a sPLA2 inhibitor compound of formula I was administered (X-axis). […] Administration of a “high dose” of sPLA2 inhibitor compound of formula (I), at the same time frame (i.e., less than 12 hours after first organ failure) was associated with a mortality of 5.4% (bar 3). […] The efficacy of a sPLA2 inhibitor administered at 0-24 hours, preferably 0-12 hours, after first organ failure is particularly significant when a “high dose” sPLA2 inhibitor compound is administered.
The data were analyzed using the Cochran-Mantel-Haenszel test adjusted for the trial primary stratification factors at a two-sided 5% significance level. The overall treatment effect as well as for pair-wise comparisons were analyzed.
Study participants were included in the study if they met all of the criteria listed below. It is anticipated that almost all patients meeting these criteria would have been in an acute care area of the hospital such as an intensive care unit, step-down unit, emergency ward, or recovery room. The events satisfying these inclusion criteria must have been attributable to the onset of sepsis and not attributable to an underlying disease process or to the effects of concomitant therapy.
[3] Have had at least one of the following sepsis-induced organ failures within the 24-hour time period immediately preceding entry into the study:
The mortality data from the study are shown in diagrams 1 through 3.

Structure (SMILES): NC(=O)C1CCCc2c1c1cc(OCCCC(=O)O)ccc1n2Cc1ccccc1 (stereo not shown)
- melting point: 199 to 200 °C

Structure (SMILES): NC(=O)C1CCCc2c1c1cc(OCCCP(=O)(O)O)ccc1n2Cc1ccccc1 (stereo not shown)
- melting point: 200 to 201 °C

Structure (SMILES): CCc1c(C(=O)C(N)=O)c2c(OCC(=O)O)cccc2n1Cc1ccccc1 [compound (Vb)]
- effect on mortality compared to placebo [1]: significant reduction in mortality
- effect on mortality compared to placebo ([1]; listed as LY315920): statistically significant reduction in mortality
- 28 day mortality by treatment ([1]; high dose (target 800 ng/mL), administered between 12 and 24 hours after first organ failure, FIG. 3 bar 6, placebo 35.1%): 31.5%
- 28 day mortality by treatment ([1]; high dose (target plasma concentration 800 ng/mL), administered less than 12 hours after first organ failure, FIG. 3 bar 3, placebo 42.9%): 5.4%
- 28 day mortality by treatment ([1]; low dose (target 200 ng/mL), administered between 12 and 24 hours after first organ failure, FIG. 3 bar 5, placebo 35.1%): 38.2%
- 28 day mortality by treatment ([1]; low dose (target plasma concentration 200 ng/mL), administered less than 12 hours after first organ failure, FIG. 3 bar 2, placebo 42.9%): 19.2%
- reduction in mortality, significance ([1]; low dose and high dose administered at 0-12 hours after first organ failure, Cochran-Mantel-Haenszel test, two-sided 5%): statistically significant

Structure (SMILES): COc1ccc2c(c1)c1c(n2Cc2ccccc2)CCCC1C(N)=O (stereo not shown)
- melting point: 154 to 156 °C

Structure (SMILES): CCc1cc2c(cc1OCCCP(=O)(O)O)c1c(n2Cc2ccccc2)CCCC1C(N)=O (stereo not shown)
- melting point: 235 to 238 °C (dec.)

Structure (SMILES): CCCCCCCCc1cc2c(cc1OCCCP(=O)(O)O)c1c(n2Cc2ccccc2)CCCC1C(N)=O (stereo not shown)
- melting point: 160 to 162 °C

Structure (SMILES): COc1cc(OC)c2c3c(n(Cc4ccccc4)c2c1)CCCC3C(=O)NN (stereo not shown)
- melting point: 189 to 190 °C
